Results from US10392383B2, “3-(1H-benzo[d]imidazol-2-yl)-1H-pyrazolo[4,3-b]pyridines and therapeutic uses thereof” (Samumed, LLC, priority 2015, dated 2019).

Tests used:
[1] = test system: primary human mesenchymal stem cells (hMSCs); test: Induction of chondrogenesis in human mesenchymal stem cells (nodule staining with Rhodamine B / Nile Red); type: cell-based; conditions: for Emax: TGF-β3 (10 ng/mL) as positive control, read-out: Max. Activity as % TGF-β3 activity; for EC50: concentration required to induce 50% levels of chondrogenesis vs TGF-β3, read-out: Conc (nM) of 50% TGF-β3 activity
Experimental: Representative compounds were screened using primary human mesenchymal stem cells (hMSCs) to determine their ability to induce chondrogenesis (process by which cartilage is developed).
Human Mesenchymal Stem Cell Culture: Primary human mesenchymal stem cells (hMSCs) were purchased from Lonza (Walkersville, Md.) and expanded in Mesenchymal Stem Cell Growth Media (Lonza). Cells between passage 3 and 6 were used for the experiments.
Compound Screening: Each compound was dissolved in DMSO as a 10 mM stock and used to prepare compound source plates. For the 96 well assay, serial dilution (1:3, 6-point dose-response curves from 2700 nM to 10 nM) and compound transfer was performed using the ECHO 550 (Labcyte, Sunnyvale, Calif.) into 96-well clear bottom assay plates (Greiner Bio-One) with appropriate DMSO backfill for a final DMSO concentration of 0.03%. hMSCs were plated at 20,000 cells/well in 250 μL/well Incomplete Chondrogenic Induction Medium (Lonza; DMEM, dexamethasone, ascorbate, insulin-transferrin-selenium [ITS supplement], gentamycin-amphotericin [GA-1000], sodium pyruvate, proline and L-glutamine). TGF-β3 (10 ng/mL) was used as a positive control for differentiation while negative control wells were treated with 75 nL DMSO for normalization and calculating EC50 values. For the 384 well assay, serial dilution (1:3, 8-point dose-response curves from 5000 nM to 2.2 nM) and compound transfer was performed using the ECHO 550 (Labcyte, Sunnyvale, Calif.) into 384-well clear bottom assay plates (Greiner Bio-One) with appropriate DMSO backfill for a final DMSO concentration of 0.03%. hMSCs were plated at 8,000 cells/well in 80 μL/well Incomplete Chondrogenic Induction Medium (Lonza; DMEM, dexamethasone, ascorbate, insulin-transferrin-selenium [ITS supplement], gentamycin-amphotericin [GA-1000], sodium pyruvate, proline and L-glutamine). TGF-β3 (10 ng/mL) was used as a positive control for differentiation while negative control wells were treated with 25 nL DMSO for normalization and calculating EC50 values. Cells were incubated at 37° C. and 5% CO2 for 6 days. To image chondrogenic nodules, the cells were fixed using 4% formaldehyde (Electron Microscopy Sciences), and stained with 2 μg/mL Rhodamine B (Sigma-Aldrich) and 20 μM Nile Red (Sigma-Aldrich) [Johnson K., et. al, A Stem Cell-Based Approach to Cartilage Repair, Science, (2012), 336(6082), 717-721]. The nodules imaged (25 images per well for 96 well plates and 9 images per well for 384 well plates at 10× magnification) by excitation at 531 nm and emission at 625 nm and quantified using the CellInsight CX5 (Thermo Scientific). Area of nodules in each well was normalized to the average of 3 DMSO treated wells on the same plate using Excel (Microsoft Inc.). The normalized averages (fold change over DMSO) of 2 or 3 replicate wells for each compound concentration were calculated. Due to solubility limitations of some of the compounds, curve fitting was incomplete leading to inaccurate EC50 determinations.
Using TGF-β3 as a positive control, the concentration of representative compounds required to induce 50% levels of chondrogenesis is reported. In addition, the maximum activity of each compound and the respective dose that each compound reached maximum chondrogenesis activity is reported.

IL-6 (THP-1 cells) = test: IL-6 inhibition in LPS-stimulated THP-1 monocytes (HTRF); type: cell-based; conditions: Homo sapiens, IL-6 HTRF; for EC50: 500 ng/mL LPS, Table 6; for inhibition at 10 µM: LPS, Table 6, read-out: percent inhibition at 10 μM (given in parentheses for EC50 >10 μM)
How it was run: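 THP-1 cells in 1% FBS pre-incubated 2 h with compound (10-point 1:3 series from 10 μM, 0.1% DMSO), then stimulated with 500 ng/mL LPS for 22 h at 37 °C. IL-6 measured by HTRF 665/620 ratio, normalized to DMSO; EC50 by four-parameter fit, or % inhibition at 10 μM when EC50 >10 μM.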

Question: Which results are given for `CCC(=O)Nc1cncc(-c2ccc3[nH]nc(-c4nc5c(-c6cccc(F)c6)cccc5[nH]4)c3n2)c1` [Compound 1, N-(5-(3-(4-(3-Fluorophenyl)-1H-benzo[d]imidazol-2-yl)-1H-pyrazolo[4,3-b]pyridin-5-yl)pyridin-3-yl)propionamide]?
Answer: Emax [1]: 99%; EC50 (IL-6 (THP-1 cells)): > 10000 nM; inhibition at 10 µM (IL-6 (THP-1 cells)): 49.2%

Question: For `CC(C)CC(=O)Nc1cncc(-c2ccc3[nH]nc(-c4nc5c(-c6cccc(F)c6)cccc5[nH]4)c3n2)c1` [Compound 2, N-(5-(3-(4-(3-Fluorophenyl)-1H-benzo[d]imidazol-2-yl)-1H-pyrazolo[4,3-b]pyridin-5-yl)pyridin-3-yl)-3-methylbutanamide], which Emax [1] is on record?
Answer: 57%

Question: What about the EC50 [1] of the same compound?
Answer: 21 nM

Question: What about the EC50 (IL-6 (THP-1 cells)) of the same compound?
Answer: 6690 nM

Question: With `CN(C)c1cncc(-c2ccc3[nH]nc(-c4nc5c(-c6cccc(F)c6)cccc5[nH]4)c3n2)c1` [Compound 7, 5-(3-(4-(3-fluorophenyl)-1H-benzo[d]imidazol-2-yl)-1H-pyrazolo[4,3-b]pyridin-5-yl)-N,N-dimethylpyridin-3-amine] as the compound, how does the Emax [1] read?
Answer: 53%

Question: And the EC50 [1]?
Answer: 30 nM

Question: And the EC50 (IL-6 (THP-1 cells))?
Answer: 9500 nM

Question: With `CN(C)Cc1cncc(-c2ccc3[nH]nc(-c4nc5c(-c6cccc(F)c6)cccc5[nH]4)c3n2)c1` [Compound 13, 1-(5-(3-(4-(3-Fluorophenyl)-1H-benzo[d]imidazol-2-yl)-1H-pyrazolo[4,3-b]pyridin-5-yl)pyridin-3-yl)-N,N-dimethylmethanamine] as the compound, how does the Emax [1] read?
Answer: 85%

Question: What about the EC50 [1] of the same compound?
Answer: 30 nM

Question: What about the EC50 (IL-6 (THP-1 cells)) of the same compound?
Answer: 1370 nM

Question: Which Emax [1] does the source give for `Fc1cccc(-c2cccc3[nH]c(-c4n[nH]c5ccc(-c6ccncc6)nc45)nc23)c1` [Compound 18, 3-(4-(3-Fluorophenyl)-1H-benzo[d]imidazol-2-yl)-5-(pyridin-4-yl)-1H-pyrazolo[4,3-b]pyridine] here?
Answer: 39%

Question: And the EC50 (IL-6 (THP-1 cells))?
Answer: 3620 nM

Question: How did the Emax [1] turn out when `Cc1cn(-c2cccc3[nH]c(-c4n[nH]c5ccc(-c6cncc(NC(=O)CC(C)C)c6)nc45)nc23)cn1` [Compound 198, 3-Methyl-N-(5-(3-(4-(4-methyl-1H-imidazol-1-yl)-1H-benzo[d]imidazol-2-yl)-1H-pyrazolo[4,3-b]pyridin-5-yl)pyridin-3-yl)butanamide] was run?
Answer: 44%

Question: What about the EC50 (IL-6 (THP-1 cells)) of the same compound?
Answer: > 10000 nM

Question: And the inhibition at 10 µM (IL-6 (THP-1 cells))?
Answer: 30.8%

Question: How did the Emax [1] turn out when `Cc1cn(-c2cccc3[nH]c(-c4n[nH]c5ccc(-c6cncc(NC(=O)C(C)(C)C)c6)nc45)nc23)cn1` [Compound 204, N-(5-(3-(4-(4-Methyl-1H-imidazol-1-yl)-1H-benzo[d]imidazol-2-yl)-1H-pyrazolo[4,3-b]pyridin-5-yl)pyridin-3-yl)pivalamide] was run?
Answer: 78%

Question: And the EC50 [1]?
Answer: 10 nM

Question: What about the EC50 (IL-6 (THP-1 cells)) of the same compound?
Answer: 6380 nM

Question: What does the source list for `Cc1cn(-c2cccc3[nH]c(-c4n[nH]c5ccc(-c6cncc(CN7CCCC7)c6)nc45)nc23)cn1` [Compound 210, 3-(4-(4-Methyl-1H-imidazol-1-yl)-1H-benzo[d]imidazol-2-yl)-5-(5-(pyrrolidin-1-ylmethyl)pyridin-3-yl)-1H-pyrazolo[4,3-b]pyridine]?
Answer: Emax [1]: 193%; EC50 [1]: 7 nM; EC50 (IL-6 (THP-1 cells)): > 10000 nM; inhibition at 10 µM (IL-6 (THP-1 cells)): 33.2%

Question: For `Cc1cn(-c2cccc3[nH]c(-c4n[nH]c5ccc(-c6cncc(NC(=O)C7CCC7)c6)nc45)nc23)cn1` [Compound 217, N-(5-(3-(4-(4-Methyl-1H-imidazol-1-yl)-1H-benzo[d]imidazol-2-yl)-1H-pyrazolo[4,3-b]pyridin-5-yl)pyridin-3-yl)cyclobutanecarboxamide], which Emax [1] is on record?
Answer: 32%

Question: What about the EC50 (IL-6 (THP-1 cells)) of the same compound?
Answer: > 10000 nM

Question: And the inhibition at 10 µM (IL-6 (THP-1 cells))?
Answer: 51.9%

Question: With `c1cncc(-c2ccc3[nH]nc(-c4nc5ccccc5[nH]4)c3n2)c1` [Compound 256, 3-(1H-Benzo[d]imidazol-2-yl)-5-(pyridin-3-yl)-1H-pyrazolo[4,3-b]pyridine] as the compound, how does the Emax [1] read?
Answer: 85%

Question: And the EC50 [1]?
Answer: 10 nM

Question: What about the EC50 (IL-6 (THP-1 cells)) of the same compound?
Answer: > 10000 nM

Question: What about the inhibition at 10 µM (IL-6 (THP-1 cells)) of the same compound?
Answer: 0%

Question: Which results are given for `Cc1ccncc1-c1ccc2[nH]nc(-c3nc4c(-c5ccsc5)cccc4[nH]3)c2n1` [Compound 285, 5-(4-Methylpyridin-3-yl)-3-(4-(thiophen-3-yl)-1H-benzo[d]imidazol-2-yl)-1H-pyrazolo[4,3-b]pyridine]?
Answer: Emax [1]: 32%; EC50 (IL-6 (THP-1 cells)): > 10000 nM; inhibition at 10 µM (IL-6 (THP-1 cells)): 36.3%

Question: For `FC1(F)CCN(Cc2cncc(-c3ccc4[nH]nc(-c5nc6c(-c7ccsc7)cccc6[nH]5)c4n3)c2)C1` [Compound 306, 5-(5-((3,3-Difluoropyrrolidin-1-yl)methyl)pyridin-3-yl)-3-(4-(thiophen-3-yl)-1H-benzo[d]imidazol-2-yl)-1H-pyrazolo[4,3-b]pyridine], which Emax [1] is on record?
Answer: 39%

Question: What about the EC50 (IL-6 (THP-1 cells)) of the same compound?
Answer: 4480 nM

Question: How did the Emax [1] turn out when `CCNCc1cncc(-c2ccc3[nH]nc(-c4nc5c(-c6ccoc6)cccc5[nH]4)c3n2)c1` [Compound 314, N-((5-(3-(4-(Furan-3-yl)-1H-benzo[d]imidazol-2-yl)-1H-pyrazolo[4,3-b]pyridin-5-yl)pyridin-3-yl)methyl)ethanamine] was run?
Answer: 32%

Question: And the EC50 (IL-6 (THP-1 cells))?
Answer: > 10000 nM

Question: What about the inhibition at 10 µM (IL-6 (THP-1 cells)) of the same compound?
Answer: 15.6%

Question: `CCC(=O)Nc1cncc(-c2ccc3[nH]nc(-c4nc5c(-c6cccs6)cccc5[nH]4)c3n2)c1` [Compound 337, N-(5-(3-(4-(Thiophen-2-yl)-1H-benzo[d]imidazol-2-yl)-1H-pyrazolo[4,3-b]pyridin-5-yl)pyridin-3-yl)propionamide] was tested. Which Emax [1] did it give?
Answer: 57%

Question: What about the EC50 (IL-6 (THP-1 cells)) of the same compound?
Answer: 2100 nM

Question: How did the Emax [1] turn out when `CN(C)c1cncc(-c2ccc3[nH]nc(-c4nc5c(-c6cccs6)cccc5[nH]4)c3n2)c1` [Compound 343, N,N-Dimethyl-5-(3-(4-(thiophen-2-yl)-1H-benzo[d]imidazol-2-yl)-1H-pyrazolo[4,3-b]pyridin-5-yl)pyridin-3-amine] was run?
Answer: 83%

Question: What about the EC50 [1] of the same compound?
Answer: 100 nM

Question: What about the EC50 (IL-6 (THP-1 cells)) of the same compound?
Answer: 3670 nM

Question: `CN(C)Cc1cncc(-c2ccc3[nH]nc(-c4nc5c(-c6cccs6)cccc5[nH]4)c3n2)c1` [Compound 349, N,N-dimethyl-1-(5-(3-(4-(thiophen-2-yl)-1H-benzo[d]imidazol-2-yl)-1H-pyrazolo[4,3-b]pyridin-5-yl)pyridin-3-yl)methanamine] was tested. Which Emax [1] did it give?
Answer: 51%

Question: And the EC50 [1]?
Answer: 10 nM

Question: And the EC50 (IL-6 (THP-1 cells))?
Answer: > 10000 nM

Question: And the inhibition at 10 µM (IL-6 (THP-1 cells))?
Answer: 14.5%

Question: For `Cc1ccc(-c2cccc3[nH]c(-c4n[nH]c5ccc(-c6cncc(N)c6)nc45)nc23)s1` [Compound 395, 5-(3-(4-(5-Methylthiophen-2-yl)-1H-benzo[d]imidazol-2-yl)-1H-pyrazolo [4,3-b]pyridin-5-yl)pyridin-3-amine], which Emax [1] is on record?
Answer: 88%

Question: What about the EC50 [1] of the same compound?
Answer: 10 nM

Question: What about the EC50 (IL-6 (THP-1 cells)) of the same compound?
Answer: 64 nM

Question: With `Cc1ccc(-c2cccc3[nH]c(-c4n[nH]c5ccc(-c6cncc(NC(=O)C(C)C)c6)nc45)nc23)s1` [Compound 401, N-(5-(3-(4-(5-Methylthiophen-2-yl)-1H-benzo[d]imidazol-2-yl)-1H-pyrazolo [4,3-b]pyridin-5-yl)pyridin-3-yl)isobutyramide] as the compound, how does the Emax [1] read?
Answer: 124%

Question: And the EC50 [1]?
Answer: 300 nM

Question: What about the EC50 (IL-6 (THP-1 cells)) of the same compound?
Answer: > 10000 nM

Question: And the inhibition at 10 µM (IL-6 (THP-1 cells))?
Answer: 45.4%

Question: `CCNCc1cncc(-c2ccc3[nH]nc(-c4nc5c(-c6cc(F)cc(NCCN(C)C)c6)cccc5[nH]4)c3n2)c1` [Compound 454, N^1-(3-(2-(5-(5-((Ethylamino)methyl)pyridin-3-yl)-1H-pyrazolo[4,3-b]pyridin-3-yl)-1H-benzo[d]imidazol-4-yl)-5-fluorophenyl)-N^2,N^2-dimethylethane-1,2-diamine] was tested. Which Emax [1] did it give?
Answer: 104%

Question: And the EC50 [1]?
Answer: 62 nM

Question: What about the EC50 (IL-6 (THP-1 cells)) of the same compound?
Answer: 628 nM
